In experiment [1] the target is T1, GST-Als5 (Candida albicans, UniProt Q5A8T7).
T1 construct: made in house; host or cells: E. coli BL21(DE3)
Kind of experiment: biochemical. The format is binding. Conditions: for Kd: 0.02 mg/ml protein, excitation 295 nm, one-site saturation model. As for the experimental part: (§1) Binding of GST-Als5 and GST-Als5-SS proteins to different peptides was monitored by fluorescence emission spectroscopy. Freshly purified samples of protein were used each time. 0.02 mg/ml of the proteins were taken and the tryptophan-specific emission spectra were monitored between 310 nm to 400 nm by excitation at 295 nm. The peptides were titrated into the protein solutions, incubated for 5 minutes after each addition, and emission spectra recorded. Both excitation and emission bandwidths were fixed at 5 nm and all spectra were averages of 5 scans. All spectra were corrected for buffer and peptide backgrounds.
(§2) All binding data were analyzed using a one-site saturation model. Binding studies were done at different temperatures, and ΔG^o for the protein-peptide interactions calculated using the equation: ΔG^o = –RTlnKa. ΔH^o and ΔS^o were obtained from the slope and intercept of the van’t Hoff plots according to the equation: [drawing 1]
The change in fluorescence emission intensity upon titration with the peptide ligands was monitored (see Figures S8A, S8C, S8E, S8G and Figures S9A, S9C, S9E, S9G, respectively) and the binding plots obtained (Figures S8B, S8D, S8F, S8H and Figures S9B, S9D, S9F, S9H, respectively) were used to calculate dissociation constants (Kd) for the interaction (Table 1).
Supplementary file pone.0035305.s008.tif: Figure S8 Binding of GST-Als5 with different peptides. A, C, E and G show representative fluorescence spectra obtained upon binding of GST-Als5 with the peptide EHAHTPR at 15 °C, 27 °C, 37 °C and 47 °C, respectively. B, D, F and H represent the binding plots of GST-Als5 with different peptides at 15 °C, 27 °C, 37 °C and 47 °C, respectively. Each data point gives the average of three independent measurements done in duplicates and the error bars denote standard deviations. Spectra 1–7 represent binding of peptides with GST-Als5 in the following order of increasing concentrations of the peptides: 1: no peptide; 2: 0.037 µM; 3: 0.074 µM; 4: 0.443 µM; 5: 0.804 µM; 6: 1.154 µM; 7: 1.5 µM. (TIF) Click here for additional data file.

The target in experiment [2] is T2, GST-Als5-SS (Candida albicans, UniProt Q5A8T7).
T2 construct: made in house; host or cells: E. coli BL21(DE3)
T2 sequence (Q5A8T7 whole entry): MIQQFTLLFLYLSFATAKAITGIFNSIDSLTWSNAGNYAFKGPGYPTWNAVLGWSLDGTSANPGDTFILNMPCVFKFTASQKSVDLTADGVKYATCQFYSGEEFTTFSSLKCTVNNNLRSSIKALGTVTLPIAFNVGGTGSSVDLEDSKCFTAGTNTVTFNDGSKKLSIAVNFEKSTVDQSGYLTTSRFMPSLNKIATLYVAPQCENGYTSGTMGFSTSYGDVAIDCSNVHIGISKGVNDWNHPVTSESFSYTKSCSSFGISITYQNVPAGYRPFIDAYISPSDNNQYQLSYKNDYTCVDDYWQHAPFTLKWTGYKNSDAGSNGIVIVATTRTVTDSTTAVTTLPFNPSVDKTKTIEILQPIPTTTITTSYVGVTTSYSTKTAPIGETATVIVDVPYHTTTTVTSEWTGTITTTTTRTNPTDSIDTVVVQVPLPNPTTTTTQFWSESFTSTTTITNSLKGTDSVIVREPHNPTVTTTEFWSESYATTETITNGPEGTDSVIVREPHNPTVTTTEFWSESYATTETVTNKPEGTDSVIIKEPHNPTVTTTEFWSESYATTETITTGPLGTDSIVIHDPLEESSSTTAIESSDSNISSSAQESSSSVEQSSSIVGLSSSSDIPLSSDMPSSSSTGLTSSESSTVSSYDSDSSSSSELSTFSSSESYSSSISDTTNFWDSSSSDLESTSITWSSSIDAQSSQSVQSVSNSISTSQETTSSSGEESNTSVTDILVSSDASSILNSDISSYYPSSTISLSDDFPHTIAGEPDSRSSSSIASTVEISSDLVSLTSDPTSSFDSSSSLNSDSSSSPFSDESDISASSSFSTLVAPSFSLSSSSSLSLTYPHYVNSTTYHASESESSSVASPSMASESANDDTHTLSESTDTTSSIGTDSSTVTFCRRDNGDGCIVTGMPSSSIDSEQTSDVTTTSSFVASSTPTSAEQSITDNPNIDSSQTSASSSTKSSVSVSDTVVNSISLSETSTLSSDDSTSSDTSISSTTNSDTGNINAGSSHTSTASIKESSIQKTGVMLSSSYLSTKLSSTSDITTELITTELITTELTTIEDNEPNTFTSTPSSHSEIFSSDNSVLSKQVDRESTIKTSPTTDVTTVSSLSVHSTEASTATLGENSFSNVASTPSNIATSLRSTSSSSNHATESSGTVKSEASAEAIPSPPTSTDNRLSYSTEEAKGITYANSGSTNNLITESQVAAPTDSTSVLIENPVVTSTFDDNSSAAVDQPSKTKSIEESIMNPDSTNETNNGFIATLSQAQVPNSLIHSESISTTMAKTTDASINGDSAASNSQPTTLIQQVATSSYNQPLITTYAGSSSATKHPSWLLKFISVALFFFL
In words: biochemical. The format is binding. As for the experimental part: as §1, §2
The change in fluorescence emission intensity upon titration with the peptide ligands was monitored (see Figures S8A, S8C, S8E, S8G and Figures S9A, S9C, S9E, S9G, respectively) and the binding plots obtained (Figures S8B, S8D, S8F, S8H and Figures S9B, S9D, S9F, S9H, respectively) were used to calculate dissociation constants (Kd) for the interaction (Table 1). […]

The target in experiment [3] is T3, GST-Als5 (Candida albicans, UniProt Q5A8T7 20-1327).
T3 construct: source: E. coli BL21, purified (glutathione-agarose); not shown: GST, N-terminal, kept
T3 sequence: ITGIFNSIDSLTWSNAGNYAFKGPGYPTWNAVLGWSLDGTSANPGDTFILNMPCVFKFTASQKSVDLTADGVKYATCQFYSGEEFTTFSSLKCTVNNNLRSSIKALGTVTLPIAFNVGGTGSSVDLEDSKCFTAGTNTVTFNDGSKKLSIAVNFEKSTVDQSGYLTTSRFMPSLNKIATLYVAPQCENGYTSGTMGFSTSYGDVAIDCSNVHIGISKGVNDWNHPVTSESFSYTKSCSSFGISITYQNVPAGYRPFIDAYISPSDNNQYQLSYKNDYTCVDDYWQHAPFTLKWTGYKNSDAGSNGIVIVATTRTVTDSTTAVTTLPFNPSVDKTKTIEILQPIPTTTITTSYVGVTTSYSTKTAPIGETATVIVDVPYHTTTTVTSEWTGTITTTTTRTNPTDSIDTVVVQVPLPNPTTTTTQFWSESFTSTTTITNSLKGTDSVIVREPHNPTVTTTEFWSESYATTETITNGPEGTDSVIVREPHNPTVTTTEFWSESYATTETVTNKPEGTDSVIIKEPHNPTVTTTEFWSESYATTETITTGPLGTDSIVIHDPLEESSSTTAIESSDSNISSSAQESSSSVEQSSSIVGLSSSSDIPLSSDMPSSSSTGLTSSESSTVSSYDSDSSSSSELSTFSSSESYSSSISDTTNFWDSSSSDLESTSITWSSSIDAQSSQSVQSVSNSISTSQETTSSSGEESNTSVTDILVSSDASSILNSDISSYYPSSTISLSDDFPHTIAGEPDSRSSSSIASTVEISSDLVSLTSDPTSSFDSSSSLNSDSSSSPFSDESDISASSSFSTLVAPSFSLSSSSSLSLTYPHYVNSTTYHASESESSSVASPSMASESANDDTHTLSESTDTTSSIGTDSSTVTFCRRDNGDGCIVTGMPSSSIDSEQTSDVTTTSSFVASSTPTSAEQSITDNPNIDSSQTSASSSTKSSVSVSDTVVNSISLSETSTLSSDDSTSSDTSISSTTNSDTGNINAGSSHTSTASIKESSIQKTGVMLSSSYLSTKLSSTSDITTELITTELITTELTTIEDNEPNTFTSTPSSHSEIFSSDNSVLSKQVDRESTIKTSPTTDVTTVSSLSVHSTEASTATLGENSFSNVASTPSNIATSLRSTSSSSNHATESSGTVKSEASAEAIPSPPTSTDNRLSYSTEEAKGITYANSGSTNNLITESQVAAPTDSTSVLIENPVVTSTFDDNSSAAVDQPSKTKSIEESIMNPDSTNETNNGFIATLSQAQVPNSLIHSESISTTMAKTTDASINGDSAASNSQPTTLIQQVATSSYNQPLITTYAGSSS
In words: other fluorescence titration; tryptophan fluorescence of 0.02 mg/ml protein, peptide titrated in; one-site saturation model; 42 °C. Conditions: both partners purified.

The target in experiment [4] is T4, GST-Als5-SS (Candida albicans, UniProt Q5A8T7 20-1326, N-terminal GST tag (pGEX-6P-2) not cleaved, omitted here; expressed in E. coli, unglycosylated. The 4044 bp insert implies the full ORF, including the N-terminal secretion signal, although the figure). Kind of experiment: other fluorescence titration; van't Hoff plots of the association constants from the fluorescence titrations at different temperatures; ΔH° from the slope. Conditions: both partners purified.

For experiment [5], the target named is T3, GST-Als5. The description is as above. Conditions: both partners purified.
Experiment [6] has as its target T4, GST-Als5-SS. Kind of experiment: other fluorescence titration; tryptophan fluorescence of 0.02 mg/ml protein, peptide titrated in; one-site saturation model; 52 °C (secondary structure of both proteins mildly perturbed at this temperature). Conditions: both partners purified.
In experiment [7] the target is T3, GST-Als5. The description is as above. Conditions: both partners purified.
The mark [8] stands for this setting: 15 °C, N.B. = no binding observed, emission 310-400 nm, average of three independent measurements in duplicates.
Where [9] appears, read: 27 °C, N.B. = no binding observed, average of three independent measurements in duplicates.
[10] abbreviates: Kd, 37 °C, average of three independent measurements in duplicates.
Setting [11] is: Kd, 47 °C, N.B. = no binding observed, average of three independent measurements in duplicates.
Where [12] appears, read: 15 °C, N.B. = no binding observed, 0.02 mg/ml protein, excitation 295 nm, emission 310-400 nm, one-site saturation model, average of three independent measurements in duplicates.
[13] abbreviates: Kd, 27 °C, N.B. = no binding observed, 0.02 mg/ml protein, excitation 295 nm, one-site saturation model, average of three independent measurements in duplicates.
Setting [14] is: Kd, 37 °C, 0.02 mg/ml protein, excitation 295 nm, one-site saturation model, average of three independent measurements in duplicates.
[15] abbreviates: Kd, 47 °C, N.B. = no binding observed, 0.02 mg/ml protein, excitation 295 nm, one-site saturation model, average of three independent measurements in duplicates.

Where two headings read alike, the source gives them in different places. Ends that are not written are not given here.

The record followed here is paper PMC3324464, “The GPI Anchor Signal Sequence Dictates the Folding and Functionality of the Als5 Adhesin from Candida albicans” (PLoS ONE, 2012).

T1 sequence (Q5A8T7 1-1327): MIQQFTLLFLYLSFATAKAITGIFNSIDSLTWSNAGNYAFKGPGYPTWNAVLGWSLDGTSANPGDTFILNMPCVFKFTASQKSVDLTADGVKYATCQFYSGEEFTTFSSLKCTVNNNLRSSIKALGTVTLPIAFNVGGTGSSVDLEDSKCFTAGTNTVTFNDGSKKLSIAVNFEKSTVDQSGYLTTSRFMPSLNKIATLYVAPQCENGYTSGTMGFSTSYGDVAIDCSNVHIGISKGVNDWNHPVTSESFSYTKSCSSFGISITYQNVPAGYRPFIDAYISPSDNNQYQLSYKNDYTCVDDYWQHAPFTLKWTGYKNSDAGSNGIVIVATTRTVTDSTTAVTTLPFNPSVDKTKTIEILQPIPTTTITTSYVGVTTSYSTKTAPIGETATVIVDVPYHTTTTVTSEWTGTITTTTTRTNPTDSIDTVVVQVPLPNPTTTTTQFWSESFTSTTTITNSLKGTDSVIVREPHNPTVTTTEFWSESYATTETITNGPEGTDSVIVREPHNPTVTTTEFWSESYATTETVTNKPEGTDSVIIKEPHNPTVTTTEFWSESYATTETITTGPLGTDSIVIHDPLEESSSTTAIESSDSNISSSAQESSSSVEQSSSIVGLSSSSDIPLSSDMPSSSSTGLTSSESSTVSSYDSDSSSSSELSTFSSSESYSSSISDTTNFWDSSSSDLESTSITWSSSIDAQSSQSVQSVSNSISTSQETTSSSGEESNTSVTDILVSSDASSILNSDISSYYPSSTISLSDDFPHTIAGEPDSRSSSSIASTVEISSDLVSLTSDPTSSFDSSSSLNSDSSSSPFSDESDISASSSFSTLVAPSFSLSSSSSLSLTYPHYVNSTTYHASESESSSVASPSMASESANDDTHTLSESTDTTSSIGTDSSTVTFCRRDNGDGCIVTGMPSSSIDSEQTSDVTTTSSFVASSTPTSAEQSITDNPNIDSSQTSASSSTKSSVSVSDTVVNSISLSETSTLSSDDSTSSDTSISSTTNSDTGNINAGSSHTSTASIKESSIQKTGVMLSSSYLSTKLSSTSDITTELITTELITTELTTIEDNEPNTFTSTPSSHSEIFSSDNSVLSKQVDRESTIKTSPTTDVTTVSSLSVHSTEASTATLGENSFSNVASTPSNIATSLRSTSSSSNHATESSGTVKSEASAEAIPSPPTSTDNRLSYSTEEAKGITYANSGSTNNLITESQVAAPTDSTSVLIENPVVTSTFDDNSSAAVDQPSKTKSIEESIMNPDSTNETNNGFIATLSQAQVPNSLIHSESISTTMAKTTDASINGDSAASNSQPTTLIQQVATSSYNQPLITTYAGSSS

The term Kd denotes the free concentration of one partner at which half of the binding sites on the other are occupied at equilibrium, for simple one-to-one binding. Turning to AYKSLMT [AYKSLMT], the Kd entry was “N.B” in experiment [1] (setting [8]); “N.B” in experiment [1] (setting [9]); 13 ± 7 nM in experiment [1] (setting [10]); 9 ± 4 nM in experiment [1] (Kd, 42 °C); 13 ± 6 nM in experiment [1] (setting [11]); “N.B” in experiment [2] (setting [12]). The values for the Kd in experiment [2] (setting [13]), in experiment [2] (setting [14]) and in experiment [2] (setting [15]) were 77 ± 2 nM, 6 ± 0.2 nM and 9 ± 2 nM, respectively.

Regarding EHAHTPR [EHAHTPR], the Kd result in experiment [1] (setting [8]) was “N.B”; in experiment [1] (setting [9]) it was “N.B”; in experiment [1] (setting [10]), 160 ± 38 nM; in experiment [1] (Kd, 42 °C) it was 34 ± 8 nM; in experiment [1] (setting [11]) it was 34 ± 11 nM; in experiment [2] it was 65 ± 13 nM. Further, the results for the dissociation constant (Kd) in experiment [2] (setting [13]), in experiment [2] (setting [14]) and in experiment [2] (setting [15]) were 82 ± 16 nM, 44 ± 4 nM and 25 ± 9 nM, respectively.

For the molecule KLRIPSV [KLRIPSV], the Kd result in experiment [1] (setting [8]) is “N.B”; in experiment [1] (setting [9]), “N.B”; in experiment [1] (setting [10]), 34 ± 12 nM; in experiment [1] (setting [11]) it was 7 ± 3 nM; in experiment [1] (Kd, 52 °C (secondary structure of protein mildly perturbed)) it was 7 ± 2 nM; in experiment [2] (setting [12]) it was “N.B”. Besides, the Kd in experiment [2] (setting [13]) came to 53 ± 6 nM; in experiment [2] (setting [14]), 17 ± 5 nM; in experiment [2] (setting [15]) it was 14 ± 2 nM.

In the case of VSPIRLK [scrambled peptide], the “binding (in words)” value is recorded as “showed no affinity for either of the protein variants” in experiment [1] (27 °C and 47 °C); “showed no affinity for either of the protein variants” in experiment [2] (27 °C and 47 °C). Also, the Kd result in experiment [1] (setting [9]) is listed as “N.B”; in experiment [1] (47 °C, N.B. = no binding observed, average of three independent measurements in duplicates), “N.B”; in experiment [2] (27 °C, N.B. = no binding observed, 0.02 mg/ml protein, excitation 295 nm, one-site saturation model, average of three independent measurements in duplicates), “N.B”; in experiment [2] (47 °C, N.B. = no binding observed, 0.02 mg/ml protein, excitation 295 nm, one-site saturation model, average of three independent measurements in duplicates) it was “N.B”.

Turning to EHAHTPR (source: synthetic peptide (USV Ltd.)), the Kd in experiment [3] stood at 34 nM; in experiment [6], 8 nM; in experiment [7] it was 11 nM. Also, the dH in experiment [4] amounted to 8.15 kcal/mol; in experiment [5], 33.4 kcal/mol.

Take KLRIPSV (source: synthetic peptide (USV Ltd.)): the Kd in experiment [3] worked out at 4 nM; in experiment [6] it was 5 nM; in experiment [7], 7 nM. For the same molecule, the dH in experiment [4] was 15.3 kcal/mol; in experiment [5], 22.5 kcal/mol.
